Measured values taken from BindingDB's records for doi:10.1021/np900246t (Griffith University, 2009).

Molecular target: MAP kinase-activated protein kinase 2 (Homo sapiens, UniProt P49137)
Assay: Inhibition of GST-tagged MAPKAPK2 assessed as [33P] incorporation after 40 mins by scintillation proximity assay

Sequence of MAP kinase-activated protein kinase 2 (P49137 whole entry): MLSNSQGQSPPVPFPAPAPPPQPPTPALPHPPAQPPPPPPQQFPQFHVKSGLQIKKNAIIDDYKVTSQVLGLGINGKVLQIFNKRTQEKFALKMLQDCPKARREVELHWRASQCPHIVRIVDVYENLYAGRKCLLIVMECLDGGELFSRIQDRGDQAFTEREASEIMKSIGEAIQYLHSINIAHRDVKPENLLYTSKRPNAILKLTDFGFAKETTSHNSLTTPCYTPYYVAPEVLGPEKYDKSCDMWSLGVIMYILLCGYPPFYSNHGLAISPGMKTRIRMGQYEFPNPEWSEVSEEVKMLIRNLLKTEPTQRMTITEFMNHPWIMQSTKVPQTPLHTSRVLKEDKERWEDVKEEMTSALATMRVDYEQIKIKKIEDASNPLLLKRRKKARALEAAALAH

Row | IC50 [µM] | Compound
1 | 22 | CC(C)=CCC/C(C)=C/C[C@]12C[C@@H](CC=C(C)C)[C@](C)(CCC=C(C)C)[C@](CC=C(C)C)(C(=O)C(C(=O)c3ccc(O)c(O)c3)C1=O)C2=O (some centres not stated) [guttiferone P]
2 | 22 | CC(C)=CCC/C(C)=C/C[C@]12C[C@@H](CC=C(C)C)C(C)(C)[C@](C/C=C(\C)CCC=C(C)C)(C(=O)C(C(=O)c3ccc(O)c(O)c3)C1=O)C2=O (some centres not stated) [guttiferone O]
